According to the NIST ThermoML archive (doi:10.1016/j.jct.2015.08.036):

How the values were obtained:
[1] = xn = mol fraction of the nth substance listed; conditions: 100 kPa, Liquid, x2 = 0.25; for electrical conductivity: Alternating current cell with electrodes; for viscosity: Capillary tube (Ostwald / Ubbelohde) method; for mass density: Pycnometric method
[2] = 101.33 kPa, Liquid; for viscosity: Capillary tube (Ostwald / Ubbelohde) method; for mass density: Pycnometric method

CC(N)=O [ethanamide] + N#C[S-].[K+]
[1]
Conditions	electrical conductivity [S/m]	mass density [kg/m3]	viscosity [mPa·s]
298.15 K	0.117	1197.1	190.16
303.15 K	0.205	1193.7	127.31
308.15 K	0.311	1190.5	88.81
313.15 K	0.429	1187.7	63.77
318.15 K	0.574	1184.5	48.11

CCO [ethanol]
[2]
Conditions	mass density [kg/m3]	viscosity [mPa·s]
298.15 K	785.2	1.096
303.15 K	781	1.003
308.15 K	776.7	0.914
313.15 K	772.3	0.834
318.15 K	766.3	0.764
